From US20240368194A1, “IRAK4 DEGRADATION AGENT, AND PREPARATION METHOD THEREFOR AND USE THEREOF” (SHANGHAI LEADINGTAC PHARMACEUTICAL CO. LTD., priority 2021, published 2024)

Experiments:
IRAK4 kinase = IRAK4 kinase (Homo sapiens (Human), UniProt Q9NWZ3); assay: IRAK4 kinase activity test (KinEASE-STK S1 HTRF kit); assay type: biochemical; settings: 2.5 nM IRAK4 kinase, 7 μM ATP, 37° C. 120 min
Description: Then 2.5 nM 1RAK4 kinase (Carna), 1 μM biotinylated polypeptide substrate (Cisbio) and 7 μM adenosine triphosphate (Sigma-Aldrich) were sequentially added, and the mixtures were incubated at 37° C. for 120 min. Subsequently, an anti-phosphoserine/threonine antibody (Cisbio) conjugated with a europium element compound and conjugated modified XL665 streptavidin (Cisbio) were added to the reaction systems to stop the reactions. After 1 h of incubation at room temperature, the fluorescence intensity of each well was measured at the excitation wavelength of 337 nm and the emission wavelengths of 620 nm and 665 nm with a microplate reader EnVision (PerkinElmer) in the HTRF mode, and Ratio values were calculated using the formula Ratio=(665 nm/620 nm)×[…]. The inhibition rate of the compound at each concentration was calculated by comparing the fluorescence intensity ratio with that of the control group. Then a non-linear curve fitting of logarithmic concentration-inhibition rate was performed using GraphPad Prism 7, and the IC50 value of the compound was obtained.

[1] = target: IRAK4 protein in THP-1 cells (Homo sapiens (Human), UniProt Q9NWZ3); assay: Degradation of IRAK4 in THP-1 cells, human IRAK4 AlphaLISA assay; assay type: cell-based; settings: 24 h incubation
Chain of IRAK4 protein in THP-1 cells (Q9NWZ3 whole entry): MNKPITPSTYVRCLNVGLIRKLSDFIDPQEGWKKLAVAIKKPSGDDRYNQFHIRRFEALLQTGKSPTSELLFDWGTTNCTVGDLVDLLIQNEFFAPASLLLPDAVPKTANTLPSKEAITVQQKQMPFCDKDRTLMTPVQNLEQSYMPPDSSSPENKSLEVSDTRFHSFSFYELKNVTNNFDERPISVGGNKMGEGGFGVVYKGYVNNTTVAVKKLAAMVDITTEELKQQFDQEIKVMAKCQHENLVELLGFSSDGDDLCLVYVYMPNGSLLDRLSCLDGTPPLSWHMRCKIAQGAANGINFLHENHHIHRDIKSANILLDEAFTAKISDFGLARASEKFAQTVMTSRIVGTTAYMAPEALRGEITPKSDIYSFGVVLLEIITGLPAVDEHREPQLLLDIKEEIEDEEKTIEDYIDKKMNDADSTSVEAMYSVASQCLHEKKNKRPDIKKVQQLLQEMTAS
Description: THP-1 cells (Stem Cell Bank, Chinese Academy of Sciences) were inoculated onto a 24-well cell culture plate at 0.95 mL/well, with a cell density of 5×10^5 cells/well. The cell plate was incubated overnight in a 37° C., 5% carbon dioxide incubator, and 50 μL of a solution of a compound in dimethyl sulfoxide was added, such that the final concentration of the compound fell within the range of 0.03-3000 nM. After another 24 h of incubation, cells were collected into 1.5 mL centrifuge tubes and centrifuged at 1000 rpm at 4° C. for 5 min. The cell pellets were washed twice with 1×DPBS. The resuspended cells were lysed with 200 μL of lysis buffer (Western and IP cell lysis buffer (Beyotime), supplemented with 1 mM phenylmethylsulfonyl fluoride and protease inhibitor cocktail (Beyotime)), left to stand on ice for 30 mini, and then centrifuged at 14,000 g at 4° C. for 10 min. The supernatant samples were assayed by Western Blot for IRAK4 protein levels.
The above cell lysates were also tested for IRAK4 degradation using a human IRAK4 AlphaLISA assay kit (PerkinElmer, AL3117C). The method is specifically as follows: 2-μL test samples of cell lysate supernatant were transferred to a white 384-well plate (PerkinElmer, 6007299), and 4 μL of 5× anti-IRAK4 receptor beads (PerkinElmer, final concentration of 10 μg/mL) was then added. The plate was incubated at 23° C. for 30 min. Then 4 μL of 5× biotin-labeled anti-IRAK4 antibody (PerkinElmer, final concentration of 1 nM) was added, and the plate was incubated at 23° C. for 60 min. Finally, 10 μL of 2′ streptavidin-labeled donor beads (final concentration of 40 μg/mL) was added to each well, and the plate was incubated in the dark at 23° C. for 30 min. After the incubation was complete, AlphaLISA signal values were measured on a microplate reader EnVision (PerkinElmer, 2105) in the AlphaScreen standard mode, and IRAK4 concentrations were calculated from these signal values. Then a non-linear curve fitting of logarithmic concentration-inhibition rate was performed using GraphPad Prism 7, and the DC50 and Dmax values of the compound were obtained.

Chain of IRAK4 kinase (Q9NWZ3 whole entry): as above

Row | Compound | IC50 (IRAK4 kinase) [µM] | DC50 [1] [µM] | Dmax [1] [%] | Dmax (%) [1] [%]
1 | O=C1CCN(c2cc(C(=O)N3CCC(CCOC[C@H]4CC[C@@H](n5cc(NC(=O)c6cnn7ccc(N8C[C@H]9C[C@@H]8CO9)nc67)c(C(F)F)n5)CC4)CC3)ccc2Cl)C(=O)N1 [Example 9, 5-((1R,4R)-2-oxa-5-azabicyclo[2.2.1]heptan-5-yl)-N-(1-((1R,4R)-4-((2-(1-(4-chloro-3-(2,4-dioxotetrahydropyrimidin-1(2H)-yl)benzoyl)piperidin-4-yl)ethoxy)methyl)cyclohexyl)-3-(difluoromethyl)-1H-pyrazol-4-yl)pyrazolo[1,5-a]pyrimidine-3-carboxamide] | 0.131 | 0.129 | – | 81.0
2 | COc1ccc(C(=O)N2CCC3(CCC(CN4CCC(n5cc(NC(=O)c6cnn7ccc(N8CC9CCC(C8)O9)nc67)c(C(F)F)n5)CC4)CC3)CC2)cc1N1CCC(=O)NC1=O [Example 16, 5-(8-oxa-3-azabicyclo[3.2.1]octan-3-yl)-N-(3-(difluoromethyl)-1-(1-((3-(3-(2,4-dioxotetrahydropyrimidin-1(2H)-yl)-4-methoxybenzoyl)-3-azaspiro[5.5]undecan-9-yl)methyl)piperidin-4-yl)-1H-pyrazol-4-yl)pyrazolo[1,5-a]pyrimidine-3-carboxamide] | 0.0088 | 0.0064 | 87.9 | –
3 | O=C1CCN(c2cc(C(=O)N3CCC4(CCC(CN5CCC(n6cc(NC(=O)c7cnn8ccc(N9CCNCC9)nc78)c(C(F)F)n6)CC5)CC4)CC3)ccc2Cl)C(=O)N1 [Example 19, N-(1-(1-((3-(4-chloro-3-(2,4-dioxotetrahydropyrimidin-1(2H)-yl)benzoyl)-3-azaspiro[5.5]undecan-9-yl)methyl)piperidin-4-yl)-3-(difluoromethyl)-1H-pyrazol-4-yl)-5-(piperazin-1-yl)pyrazolo[1,5-a]pyrimidine-3-carboxamide] | 0.0038 | 0.0051 | 97.7 | –
4 | CN(CCN1CCC(n2cc(NC(=O)c3cnn4ccc(N5C[C@H]6C[C@@H]5CO6)nc34)c(C(F)F)n2)CC1)CC1CCN(C(=O)c2ccc(Cl)c(N3CCC(=O)NC3=O)c2)CC1 [Example 20, 5-((1R,4R)-2-oxa-5-azabicyclo[2.2.1]heptan-5-yl)-N-(1-(1-(2-(((1-(4-chloro-3-(2,4-dioxotetrahydropyrimidin-1(2H)-yl)benzoyl)piperidin-4-yl)methyl)(methyl)amino)ethyl)piperidin-4-yl)-3-(difluoromethyl)-1H-pyrazol-4-yl)pyrazolo[1,5-a]pyrimidine-3-carboxamide] | 0.0892 | 0.0786 | 87 | –
5 | O=C1CCN(c2cc(C(=O)N3CCC(CCCCN4CCC(n5cc(NC(=O)c6cnn7ccc(N8C[C@H]9C[C@@H]8CO9)nc67)c(C(F)F)n5)CC4)CC3)ccc2Cl)C(=O)N1 [Example 21, 5-((1R,4R)-2-oxa-5-azabicyclo[2.2.1]heptan-5-yl)-N-(1-(1-(4-(1-(4-chloro-3-(2,4-dioxotetrahydropyrimidin-1(2H)-yl)benzoyl)piperidin-4-yl)butyl)piperidin-4-yl)-3-(difluoromethyl)-1H-pyrazol-4-yl)pyrazolo[1,5-a]pyrimidine-3-carboxamide] | 0.0099 | 0.0096 | 95.5 | –
6 | O=C1CCN(c2cc(C(=O)N3CCC4(CCC(CN5CCC(n6cc(NC(=O)c7cnn8ccc(N9CCOCC9)nc78)c(C(F)F)n6)CC5)CC4)CC3)ccc2C(F)(F)F)C(=O)N1 [Example 25, N-(3-(difluoromethyl)-1-(1-((3-(3-(2,4-dioxotetrahydropyrimidin-1(2H)-yl)-4-(trifluoromethyl)benzoyl)-3-azaspiro[5.5]undecan-9-yl)methyl)piperidin-4-yl)-1H-pyrazol-4-yl)-5-morpholinopyrazolo[1,5-a]pyrimidine-3-carboxamide] | 0.0141 | 0.0621 | 97.8 | –
7 | Cc1ccc(C(=O)N2CCC3(CCC(CN4CCC(n5cc(NC(=O)c6cnn7ccc(N8CCOCC8)nc67)c(C(F)F)n5)CC4)CC3)CC2)cc1N1CCC(=O)NC1=O [Example 34, N-(3-(difluoromethyl)-1-(1-((3-(3-(2,4-dioxotetrahydropyrimidin-1(2H)-yl)-4-methylbenzoyl)-3-azaspiro[5.5]undecan-9-yl)methyl)piperidin-4-yl)-1H-pyrazol-4-yl)-5-morpholinopyrazolo[1,5-a]pyrimidine-3-carboxamide] | 0.011 | 0.00355 | 87.1 | –

Now from value to compound, other results behind:

Row | IC50 (IRAK4 kinase) [µM] | DC50 [1] [µM] | Dmax [1] [%] | Compound | Dmax (%) [1] [%]
8 | 0.0193 | 0.0055 | 84.4 | COc1ccc(C(=O)N2CCC3(CCC(CN4CCC(n5cc(NC(=O)c6cnn7ccc(N8C[C@H]9C[C@@H]8CO9)nc67)c(C(F)F)n5)CC4)CC3)CC2)cc1N1CCC(=O)NC1=O [Example 13, 5-((1R,4R)-2-oxa-5-azabicyclo[2.2.1]heptan-5-yl)-N-(3-(difluoromethyl)-1-(1-((3-(3-(2,4-dioxotetrahydropyrimidin-1(2H)-yl)-4-methoxybenzoyl)-3-azaspiro[5.5]undecan-9-yl)methyl)piperidin-4-yl)-1H-pyrazol-4-yl)pyrazolo[1,5-a]pyrimidine-3-carboxamide] | –
9 | 0.0142 | 0.0025 | 92.1 | O=C1CCN(c2cc(C(=O)N3CCC4(CCC(CN5CCC(n6cc(NC(=O)c7cnn8ccc(N9CCOCC9)nc78)c(C(F)F)n6)CC5)CC4)CC3)ccc2Cl)C(=O)N1 [Example 15, N-(1-(1-((3-(4-chloro-3-(2,4-dioxotetrahydropyrimidin-1(2H)-yl)benzoyl)-3-azaspiro[5.5]undecan-9-yl)methyl)piperidin-4-yl)-3-(difluoromethyl)-1H-pyrazol-4-yl)-5-morpholinopyrazolo[1,5-a]pyrimidine-3-carboxamide] | –
10 | 0.0669 | 0.0543 | 62.5 | O=C1CCN(c2cc(C(=O)N3CCC(COCCN4CCC(n5cc(NC(=O)c6cnn7ccc(N8C[C@H]9C[C@@H]8CO9)nc67)c(C(F)F)n5)CC4)CC3)ccc2Cl)C(=O)N1 [Example 18, 5-((1R,4R)-2-oxa-5-azabicyclo[2.2.1]heptan-5-yl)-N-(1-(1-(2-((1-(4-chloro-3-(2,4-dioxotetrahydropyrimidin-1(2H)-yl)benzoyl)piperidin-4-yl)methoxy)ethyl)piperidin-4-yl)-3-(difluoromethyl)-1H-pyrazol-4-yl)pyrazolo[1,5-a]pyrimidine-3-carboxamide] | –
11 | 0.023 | 0.0101 | 93.7 | O=C1CCN(c2cc(C(=O)N3CCC(OCCCN4CCC(n5cc(NC(=O)c6cnn7ccc(N8C[C@H]9C[C@@H]8CO9)nc67)c(C(F)F)n5)CC4)CC3)ccc2Cl)C(=O)N1 [Example 23, 5-((1R,4R)-2-oxa-5-azabicyclo[2.2.1]heptan-5-yl)-N-(1-(1-(3-((1-(4-chloro-3-(2,4-dioxotetrahydropyrimidin-1(2H)-yl)benzoyl)piperidin-4-yl)oxy)propyl)piperidin-4-yl)-3-(difluoromethyl)-1H-pyrazol-4-yl)pyrazolo[1,5-a]pyrimidine-3-carboxamide] | –
12 | 0.00608 | 0.00616 | 96.3 | O=C1CCN(c2cc(C(=O)N3CCC4(CCC(CN5CCC(n6cc(NC(=O)c7cnn8ccc(N9CCOCC9)nc78)c(C(F)F)n6)CC5)CC4)CC3)ccc2F)C(=O)N1 [Example 24, N-(3-(difluoromethyl)-1-(1-((3-(3-(2,4-dioxotetrahydropyrimidin-1(2H)-yl)-4-fluorobenzoyl)-3-azaspiro[5.5]undecan-9-yl)methyl)piperidin-4-yl)-1H-pyrazol-4-yl)-5-morpholinopyrazolo[1,5-a]pyrimidine-3-carboxamide] | –
13 | 0.0129 | 0.00318 | 89.4 | COc1ccc(C(=O)N2CCC3(CCC(CCN4CCC(n5cc(NC(=O)c6cnn7ccc(N8CCOCC8)nc67)c(C(F)F)n5)CC4)CC3)CC2)cc1N1CCC(=O)NC1=O [Example 28, N-(3-(difluoromethyl)-1-(1-(2-(3-(3-(2,4-dioxotetrahydropyrimidin-1(2H)-yl)-4-methoxybenzoyl)-3-azaspiro[5.5]undecan-9-yl)ethyl)piperidin-4-yl)-1H-pyrazol-4-yl)-5-morpholinopyrazolo[1,5-a]pyrimidine-3-carboxamide] | –
